Our source for the IC50 values is US20260049076A1, “Tertiary Amine Substituted Bicyclic Compounds Useful as T Cell Activators” (BRISTOL-MYERS SQUIBB COMPANY, priority 2022, published 2026).

The structures appear in SMILES notation. Bounds are passed on as bounds.

In test [1] the target is T1, human DGKζ (Homo sapiens, UniProt Q13574).
T1 construct: TVMV protease cleavage site (C); Hexa-His (C); made in house; host or cells: Sf9 insect cells (baculovirus)
As to the kind of experiment: In vitro DGK inhibition assay, DGKζ liposome (LIPGLO) assay. It is filed as biochemical. Conditions: read-out: Enzyme Inhibition DGKzeta IC50. How it is done:
(§1) The DGKα and DGKζ reactions were performed using either extruded liposome (DGKα and DGKζ LIPGLO assays) or detergent/lipid micelle substrate (DGKα and DGKζ assays). The reactions were carried out in 50 mM MOPS pH 7.5, 100 mM NaCl, 10 mM MgCl2, 1 μM CaCl2, and 1 mM DTT (assay buffer). The reactions using a detergent/lipid micelle substrate also contained 50 mM octyl B-D-glucopyranoside. The lipid substrate concentrations were 11 mM PS and 1 mM DAG for the detergent/lipid micelle reactions. The lipid substrate concentrations were 2 mM PS, 0.25 mM DAG, and 2.75 mM PC for the extruded liposome reactions (5 mM total lipid). The reactions were carried out in 150 μM ATP The enzyme concentrations for the DGKα and DGKζ were 5 nM
(§2) The compound inhibition studies were carried out as follows: 25 nL (ADPGLO assay) or 50 nL (LIPGLO assay) droplets of each test compound (top concentration 10 mM with 11 point, 3-fold dilution series for each compound) solubilized in DMSO were transferred to wells of a white 1536 well plate (Corning 3725). A 5 mL enzyme/lipid substrate solution at 2× final reaction concentration was prepared by combining 2.5 mL 4× enzyme solution (20 nM DGKα, or DGKζ (prepared as described below) in assay buffer) and 2.5 mL of either 4× liposome or 4× detergent/lipid micelle solution (compositions described below) and incubated at room temperature for 10 minutes. Next, 1 μL 2× enzyme/lipid substrate solution was added to wells containing the test compound and reactions were initiated with the addition of 1 μL 300 uM ATP. The reactions were allowed to proceed for 2 hr (ADPGLO assay) or 1 hr (LIPGLO assay), after which 2 μL Glo Reagent (Promega V9101) was added and incubated for 40 minutes. Next, 4 μL Kinase Detection Reagent was added and incubated for 30 minutes. Luminescence was recorded using an EnVision microplate reader. […] The compounds were evaluated at 11 concentrations to determine IC50.
(§3) The lipid composition was 5 mol % DAG (Avanti 8008110), 40 mol % PS (Avanti 840035P), and 55 mol % PC (Avanti 850457) at a total lipid concentration of 7-8 mg/mL for the liposome solution. The PC, DAG, and PS were dissolved in chloroform, combined, and dried in vacuo to a thin film. The lipids were hydrated to 20 mM in 50 mM MOPS pH 7.5, 100 mM NaCl, 5 mM MgCl2, and were freeze-thawed five times. The lipid suspension was extruded through a 100 nm polycarbonate filter 10-12 times. […] The liposome preparation was stored at 4° C. for as long as four weeks.
(§4) The lipid composition was 5 mol % DAG (Avanti 8008110), 40 mol % PS (Avanti 840035P), and 55 mol % PC (Avanti 850457) at a total lipid concentration of 15.2 mg/mL for the 4× liposome solution. The PC, DAG, and PS were dissolved in chloroform, combined, and dried in vacuo to a thin film. The lipids were hydrated to 20 mM in 50 mM MOPS pH 7.5, 100 mM NaCl, 5 mM MgCl2, and were freeze-thawed five times. The lipid suspension was extruded through a 100 nm polycarbonate filter eleven times. […] The liposome preparation was stored at 4° C. for as long as four weeks.
(§5) Human DGK-alpha-TVMV-His-pFBgate and human DGK-zeta-transcript variant-2-TVMV-His-pFBgate baculovirus samples were generated using the Bac-to-Bac baculovirus expression system (Invitrogen) according to the manufacturer's protocol. […] Baculovirus amplification was achieved using infected Sf9 cells at 1:1500 virus/cell ratios, and grown for 65 hours at 27° C. post-transfection.
(§6) The expression scale up for each protein was carried out in the Cellbag 50L WAVE-Bioreactor System 20/50 from GE Healthcare Bioscience. 12 L of 2×10^6 cells/mL Sf9 cells (Expression System, Davis, CA) grown in ESF921 insect medium (Expression System) were infected with virus stock at 1:200 virus/cell ratios, and grown for 66-68 hours at 27° C. post-infection.

In test [2] the target is T2, human DGKα (Homo sapiens, UniProt P23743).
T2 construct: TVMV protease cleavage site (C); Hexa-His (C); made in house; host or cells: Sf9 insect cells (baculovirus)
T2 sequence (P23743 with tags, fused parts or gaps): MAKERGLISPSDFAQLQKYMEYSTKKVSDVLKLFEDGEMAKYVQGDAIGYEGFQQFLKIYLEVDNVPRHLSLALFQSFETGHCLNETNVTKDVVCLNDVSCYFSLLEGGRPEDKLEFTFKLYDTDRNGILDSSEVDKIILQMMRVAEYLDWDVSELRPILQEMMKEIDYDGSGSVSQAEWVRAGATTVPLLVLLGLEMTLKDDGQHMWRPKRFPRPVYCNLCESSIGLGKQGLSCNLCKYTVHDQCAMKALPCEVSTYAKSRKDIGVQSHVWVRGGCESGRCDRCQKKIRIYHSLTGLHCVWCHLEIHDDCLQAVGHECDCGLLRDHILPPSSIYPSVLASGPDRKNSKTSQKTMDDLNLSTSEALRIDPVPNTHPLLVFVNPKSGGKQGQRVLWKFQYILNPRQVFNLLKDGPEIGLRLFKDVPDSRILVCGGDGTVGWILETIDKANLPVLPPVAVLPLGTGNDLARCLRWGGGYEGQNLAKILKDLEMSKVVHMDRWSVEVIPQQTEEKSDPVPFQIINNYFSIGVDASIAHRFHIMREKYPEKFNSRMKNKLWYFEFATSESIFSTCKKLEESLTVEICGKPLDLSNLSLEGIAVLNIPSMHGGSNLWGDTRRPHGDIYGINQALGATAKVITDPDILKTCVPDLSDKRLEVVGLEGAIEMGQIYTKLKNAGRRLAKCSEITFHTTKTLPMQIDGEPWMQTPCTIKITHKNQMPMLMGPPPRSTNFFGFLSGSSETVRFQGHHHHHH
As to the kind of experiment: In vitro DGK inhibition assay, DGKα liposome (LIPGLO) assay. It is filed as biochemical. Particulars: read-out: Enzyme Inhibition DGKalpha IC50. How it is done:
as §1, §2, §3, §4, §5, §6

T1 sequence (Q13574 with tags, fused parts or gaps isoform Q13574-4): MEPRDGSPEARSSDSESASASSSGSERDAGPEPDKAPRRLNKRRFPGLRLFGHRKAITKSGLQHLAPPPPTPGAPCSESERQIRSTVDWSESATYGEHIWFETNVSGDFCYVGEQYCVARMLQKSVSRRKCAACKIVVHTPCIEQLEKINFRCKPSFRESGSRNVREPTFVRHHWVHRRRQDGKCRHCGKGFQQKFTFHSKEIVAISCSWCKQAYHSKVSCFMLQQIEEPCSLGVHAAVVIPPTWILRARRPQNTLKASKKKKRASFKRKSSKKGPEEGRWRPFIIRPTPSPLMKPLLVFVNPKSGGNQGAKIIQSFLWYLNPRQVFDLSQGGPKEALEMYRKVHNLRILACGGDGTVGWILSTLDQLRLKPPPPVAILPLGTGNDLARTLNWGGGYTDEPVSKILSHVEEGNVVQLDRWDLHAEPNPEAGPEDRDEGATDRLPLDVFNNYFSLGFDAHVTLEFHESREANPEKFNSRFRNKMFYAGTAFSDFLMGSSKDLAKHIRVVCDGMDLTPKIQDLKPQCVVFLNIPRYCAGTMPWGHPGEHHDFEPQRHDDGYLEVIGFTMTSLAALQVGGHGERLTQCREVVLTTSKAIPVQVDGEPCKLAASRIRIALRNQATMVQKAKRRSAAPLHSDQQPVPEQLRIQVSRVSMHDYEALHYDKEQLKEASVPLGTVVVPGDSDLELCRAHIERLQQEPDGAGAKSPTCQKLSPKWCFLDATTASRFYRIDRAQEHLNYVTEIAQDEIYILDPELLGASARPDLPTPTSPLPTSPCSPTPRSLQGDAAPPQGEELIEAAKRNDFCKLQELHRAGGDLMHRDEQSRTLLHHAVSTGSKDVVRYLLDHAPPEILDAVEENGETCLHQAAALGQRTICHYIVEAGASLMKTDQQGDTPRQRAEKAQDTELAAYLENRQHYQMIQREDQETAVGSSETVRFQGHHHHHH

Broadly, the IC50 is the concentration needed to halve the response being measured. For `CC(C1CC1)N(C)c1c(C#N)c(=O)n(C)c2ccc(Br)nc12` (racemic) [Example 9, 6-bromo-4-((1-cyclopropylethyl)(methyl)amino)-1-methyl-2-oxo-1,2-dihydro-1,5-naphthyridine-3-carbonitrile], the IC50 in test [1] was 7.1 µM.
As for `CC(C1CC1)N(C)c1cc(=O)n(C)c2ccc(C#N)nc12` (racemic) [Example 32, 8-((1-cyclopropylethyl)(methyl)amino)-5-methyl-6-oxo-5,6-dihydro-1,5-naphthyridine-2-carbonitrile], the IC50 in test [2] was determined as 1400 nM; in test [1], 90 µM.
The matching figures for `COc1ccc(-c2cccc(N(C)c3nc(=O)n(C)c4ccc(C#N)nc34)c2)cc1` [Example 2, 4-((4′-methoxy-[1,1′-biphenyl]-3-yl)(methyl)amino)-1-methyl-2-oxo-1,2-dihydropyrido[3,2-d]pyrimidine-6-carbonitrile]: more than 38000 nM and more than 38 µM.
The matching figures for `CN(c1cccc(-c2ccc(OC(F)(F)F)cc2)c1)c1nc(=O)n(C)c2ccc(C#N)nc12` [Example 3, 1-methyl-4-(methyl(4′-(trifluoromethoxy)-[1,1′-biphenyl]-3-yl)amino)-2-oxo-1,2-dihydropyrido[3,2-d]pyrimidine-6-carbonitrile]: 1800 nM and more than 38 µM.
For the molecule `CN(c1cccc(-c2ccc(C3CC3)cc2)c1)c1cc(=O)n(C)c2ccc(C#N)nc12` [Example 4, 8-((4′-cyclopropyl-[1,1′-biphenyl]-3-yl)(methyl)amino)-5-methyl-6-oxo-5,6-dihydro-1,5-naphthyridine-2-carbonitrile], the IC50 in test [2] was 49 nM; in test [1] it was more than 38 µM.
The matching figures for `COc1ccc(-c2cccc(N(C)c3cc(=O)n(C)c4ccc(C#N)nc34)c2)cc1` [Example 5, 8-((4′-methoxy-[1,1′-biphenyl]-3-yl)(methyl)amino)-5-methyl-6-oxo-5,6-dihydro-1,5-naphthyridine-2-carbonitrile]: 180 nM and 32 µM.
For the molecule `CN(c1c(C#N)c(=O)n(C)c2ccc(Br)nc12)C1CCCCC1` [Example 7, 6-bromo-4-[cyclohexyl(methyl)amino]-1-methyl-2-oxo-1,2-dihydro-1,5-naphthyridine-3-carbonitrile], in test [1], the IC50 is 21 µM.
On the same count and under the same terms, in the case of `CC1CCC(N(C)c2c(C#N)c(=O)n(C)c3ccc(Br)nc23)CC1` (stereo not drawn) [Example 8, 6-bromo-1-methyl-4-(methyl(4-methylcyclohexyl)amino)-2-oxo-1,2-dihydro-1,5-naphthyridine-3-carbonitrile] it was 31 µM; in that of `CN(c1c(C#N)c(=O)n(C)c2ccc(C#N)nc12)C1CCCCC1` [Example 10, 8-[cyclohexyl(methyl)amino]-5-methyl-6-oxo-5,6-dihydro-1,5-naphthyridine-2,7-dicarbonitrile], 4 µM.
Still for that read-out and setting: in the case of `CC(C1CC1)N(C)c1c(C#N)c(=O)n(C)c2ccc(C#N)nc12` (stereo not drawn) [Example 11, 8-[(1-cyclopropylethyl)(methyl)amino]-5-methyl-6-oxo-5,6-dihydro-1,5-naphthyridine-2,7-dicarbonitrile] it was 7.3 µM.
Consider `COc1ccc2c(n1)c(N(C)C1CCCCC1)c(C#N)c(=O)n2C` [Example 12, 4-[cyclohexyl(methyl)amino]-6-methoxy-1-methyl-2-oxo-1,2-dihydro-1,5-naphthyridine-3-carbonitrile], for which the IC50 in test [1] is 84 µM.
As for `Cc1ccc2c(n1)c(N(C)C1CCCCC1)c(C#N)c(=O)n2C` [Example 13, 4-[cyclohexyl(methyl)amino]-1,6-dimethyl-2-oxo-1,2-dihydro-1,5-naphthyridine-3-carbonitrile], the IC50 was 290 nM in test [2] and 2.7 µM in test [1].
Consider `Cc1ccc2c(n1)c(N(C)C(C)C1CC1)c(C#N)c(=O)n2C` (stereo not drawn) [Example 14, 4-[(1-cyclopropylethyl)(methyl)amino]-1,6-dimethyl-2-oxo-1,2-dihydro-1,5-naphthyridine-3-carbonitrile], for which the IC50 in test [1] amounted to 29 µM.
For `CC(C1CC1)N(C)c1c(C#N)c(=O)n(C)c2ccc(CC#N)nc12` (stereo not drawn) [Example 15, 6-(cyanomethyl)-4-[(1-cyclopropylethyl)(methyl)amino]-1-methyl-2-oxo-1,2-dihydro-1,5-naphthyridine-3-carbonitrile], the IC50 in test [1] turned out to be 7.1 µM.
The same measure, in the same setting: the result for `C#CCn1c(=O)c(C#N)c(N(C)C2CCCCC2)c2nc(Br)ccc21` [Example 16, 6-bromo-4-[cyclohexyl(methyl)amino]-2-oxo-1-(prop-2-yn-1-yl)-1,2-dihydro-1,5-naphthyridine-3-carbonitrile] reads 12 µM.
With `C#CCn1c(=O)c(C#N)c(N(C)C2CCCCC2)c2nc(C#N)ccc21` [Example 17, 8-[cyclohexyl(methyl)amino]-6-oxo-5-(prop-2-yn-1-yl)-5,6-dihydro-1,5-naphthyridine-2,7-dicarbonitrile], the IC50 in test [2] came to 2000 nM; in test [1], 3.6 µM.
`CN(c1cc(=O)n(C)c2ccc(C#N)nc12)C1CCCCC1` [Example 19, 8-(cyclohexyl(methyl)amino)-5-methyl-6-oxo-5,6-dihydro-1,5-naphthyridine-2-carbonitrile]: in test [1], the IC50 came to 12 µM.
Consider `Cc1ccc(N(C)c2cc(=O)n(C)c3ccc(C#N)nc23)cc1` [Example 20, 5-methyl-8-(methyl(p-tolyl)amino)-6-oxo-5,6-dihydro-1,5-naphthyridine-2-carbonitrile], for which the results for the IC50 in test [2] and in test [1] were 730 nM and 36 µM, respectively.
For the molecule `CN(c1cccc(C#N)c1)c1cc(=O)n(C)c2ccc(C#N)nc12` [Example 21, 8-((3-cyanophenyl)(methyl)amino)-5-methyl-6-oxo-5,6-dihydro-1,5-naphthyridine-2-carbonitrile], the IC50 in test [1] was more than 125 µM.
For the molecule `Cc1cccc(N(C)c2cc(=O)n(C)c3ccc(C#N)nc23)c1` [Example 22, 5-methyl-8-(methyl(m-tolyl)amino)-6-oxo-5,6-dihydro-1,5-naphthyridine-2-carbonitrile], the IC50 in test [2] turned out to be 1300 nM; in test [1], 4.7 µM.
For `CN(c1ccc(F)cc1)c1cc(=O)n(C)c2ccc(C#N)nc12` [Example 23, 8-((4-fluorophenyl)(methyl)amino)-5-methyl-6-oxo-5,6-dihydro-1,5-naphthyridine-2-carbonitrile], the half-inhibitory concentration (IC50) was determined as 110 nM in test [2] and 4.9 µM in test [1].
Regarding `COc1ccc(N(C)c2cc(=O)n(C)c3ccc(C#N)nc23)cc1` [Example 24, 8-((4-methoxyphenyl)(methyl)amino)-5-methyl-6-oxo-5,6-dihydro-1,5-naphthyridine-2-carbonitrile], the IC50 in test [2] was 650 nM; in test [1], 3.2 µM.
In the same order, the values of `Cc1ccccc1N(C)c1cc(=O)n(C)c2ccc(C#N)nc12` [Example 26, 5-methyl-8-(methyl(o-tolyl)amino)-6-oxo-5,6-dihydro-1,5-naphthyridine-2-carbonitrile] are 960 nM and 37 µM.
As to `Cn1c(=O)cc(N(CC2CC2)c2ccc(C3CC3)cn2)c2nc(C#N)ccc21` [Example 46, 8-((cyclopropylmethyl)(5-cyclopropylpyridin-2-yl)amino)-5-methyl-6-oxo-5,6-dihydro-1,5-naphthyridine-2-carbonitrile], the IC50 in test [1] was determined as 0.99 µM.
